Results: US12492188B2, “1H-benzo[D]imidazole derivatives as TLR9 inhibitors for the treatment of fibrosis” (BRISTOL-MYERS SQUIBB COMPANY, priority 2020, dated 2025)
Where two headings read alike, the source gives them in different places.

Assays:
Assay type in all cases: cell-based
human TLR8 = molecular target: T1, human TLR8 (Homo sapiens, UniProt Q9NR97); test: TLR8 inhibition reporter assay (HEK-Blue cells, secreted embryonic alkaline phosphatase reporter); details: HEK-Blue cells overexpressing human TLR8, stimulated with R848 15.9 μM; read-out: TLR 8 IC50
T1 construct: host or cells: HEK-Blue cells (HEK293-derived reporter line)
T1 sequence (Q9NR97 27-1041): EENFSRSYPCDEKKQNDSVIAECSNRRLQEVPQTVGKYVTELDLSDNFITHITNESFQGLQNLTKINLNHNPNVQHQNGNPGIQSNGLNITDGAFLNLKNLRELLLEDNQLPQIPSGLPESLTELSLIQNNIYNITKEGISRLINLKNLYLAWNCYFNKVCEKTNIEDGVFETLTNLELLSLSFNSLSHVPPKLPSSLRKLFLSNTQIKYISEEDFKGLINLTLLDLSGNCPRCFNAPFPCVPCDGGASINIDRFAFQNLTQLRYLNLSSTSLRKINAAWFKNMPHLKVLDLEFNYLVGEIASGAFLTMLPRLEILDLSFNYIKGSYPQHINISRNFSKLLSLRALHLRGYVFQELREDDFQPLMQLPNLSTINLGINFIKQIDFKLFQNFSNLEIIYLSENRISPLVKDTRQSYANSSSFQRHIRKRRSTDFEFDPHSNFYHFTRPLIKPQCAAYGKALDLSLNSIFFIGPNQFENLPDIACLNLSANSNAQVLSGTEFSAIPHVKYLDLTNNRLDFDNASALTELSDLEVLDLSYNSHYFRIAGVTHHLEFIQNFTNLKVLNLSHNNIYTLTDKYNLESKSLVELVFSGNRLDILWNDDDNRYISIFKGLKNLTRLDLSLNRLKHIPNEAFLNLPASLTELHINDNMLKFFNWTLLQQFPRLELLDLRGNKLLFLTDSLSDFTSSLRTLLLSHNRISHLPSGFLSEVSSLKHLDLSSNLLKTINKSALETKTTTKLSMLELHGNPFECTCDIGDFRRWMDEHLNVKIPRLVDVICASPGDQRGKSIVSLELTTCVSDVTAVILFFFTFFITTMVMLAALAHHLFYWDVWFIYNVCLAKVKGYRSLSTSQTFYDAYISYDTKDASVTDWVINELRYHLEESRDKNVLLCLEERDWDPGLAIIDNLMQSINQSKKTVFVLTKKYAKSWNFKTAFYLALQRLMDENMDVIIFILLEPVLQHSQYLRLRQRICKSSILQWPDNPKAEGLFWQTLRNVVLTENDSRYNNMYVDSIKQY
Procedure, shortened: (§1)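 HEK-Blue cells overexpressing the respective receptor, with an NF-κB/AP-1-driven SEAP reporter, were pre-treated with compound (0.05 nM–50 μM) for 30 min at room temperature. Stimulation used gardiquimod 7.5 μM (TLR7), R848 15.9 μM (TLR8) or ODN2006 5 nM (TLR9); SEAP was read after 22 h at 37 °C as percent inhibition.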

human TLR9 = molecular target: T2, human TLR9 (Homo sapiens, UniProt Q9NR96); test: TLR9 inhibition reporter assay (HEK-Blue cells, secreted embryonic alkaline phosphatase reporter)
T2 construct: host or cells: HEK-Blue cells (HEK293-derived reporter line)
T2 sequence (Q9NR96 26-1032): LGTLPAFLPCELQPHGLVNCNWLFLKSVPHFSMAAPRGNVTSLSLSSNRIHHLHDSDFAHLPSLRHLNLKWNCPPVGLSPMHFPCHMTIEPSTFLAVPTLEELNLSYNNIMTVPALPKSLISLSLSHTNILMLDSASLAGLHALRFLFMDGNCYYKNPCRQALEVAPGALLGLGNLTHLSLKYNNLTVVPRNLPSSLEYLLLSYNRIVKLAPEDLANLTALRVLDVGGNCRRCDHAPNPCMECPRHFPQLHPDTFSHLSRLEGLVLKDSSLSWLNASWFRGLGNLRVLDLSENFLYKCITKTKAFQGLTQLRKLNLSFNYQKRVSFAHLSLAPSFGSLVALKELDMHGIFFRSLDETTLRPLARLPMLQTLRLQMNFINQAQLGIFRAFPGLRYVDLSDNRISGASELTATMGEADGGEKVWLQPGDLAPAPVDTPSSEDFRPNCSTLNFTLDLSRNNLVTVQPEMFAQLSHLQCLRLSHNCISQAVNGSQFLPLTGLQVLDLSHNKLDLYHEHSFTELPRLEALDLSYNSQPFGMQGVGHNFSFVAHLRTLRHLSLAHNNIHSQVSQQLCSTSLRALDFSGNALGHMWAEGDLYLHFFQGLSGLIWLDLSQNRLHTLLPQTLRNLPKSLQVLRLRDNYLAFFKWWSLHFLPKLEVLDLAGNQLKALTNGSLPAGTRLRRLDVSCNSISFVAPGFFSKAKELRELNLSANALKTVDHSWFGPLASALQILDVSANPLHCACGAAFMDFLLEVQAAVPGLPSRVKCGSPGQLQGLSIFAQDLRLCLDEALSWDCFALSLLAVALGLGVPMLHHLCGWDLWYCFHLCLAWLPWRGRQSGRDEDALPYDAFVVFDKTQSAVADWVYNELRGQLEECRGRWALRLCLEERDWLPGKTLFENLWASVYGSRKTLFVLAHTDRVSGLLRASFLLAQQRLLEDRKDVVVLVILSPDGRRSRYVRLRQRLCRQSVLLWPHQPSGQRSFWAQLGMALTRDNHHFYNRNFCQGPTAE
Procedure, shortened: as §1

human TLR7 = molecular target: T3, human TLR7 (Homo sapiens, UniProt Q9NYK1); test: TLR7 inhibition reporter assay (HEK-Blue cells, secreted embryonic alkaline phosphatase reporter); details: HEK-Blue cells overexpressing human TLR7, stimulated with gardiquimod 7.5 μM; read-out: TLR 7 IC50
T3 construct: host or cells: HEK-Blue cells (HEK293-derived reporter line)
T3 sequence (Q9NYK1 27-1049): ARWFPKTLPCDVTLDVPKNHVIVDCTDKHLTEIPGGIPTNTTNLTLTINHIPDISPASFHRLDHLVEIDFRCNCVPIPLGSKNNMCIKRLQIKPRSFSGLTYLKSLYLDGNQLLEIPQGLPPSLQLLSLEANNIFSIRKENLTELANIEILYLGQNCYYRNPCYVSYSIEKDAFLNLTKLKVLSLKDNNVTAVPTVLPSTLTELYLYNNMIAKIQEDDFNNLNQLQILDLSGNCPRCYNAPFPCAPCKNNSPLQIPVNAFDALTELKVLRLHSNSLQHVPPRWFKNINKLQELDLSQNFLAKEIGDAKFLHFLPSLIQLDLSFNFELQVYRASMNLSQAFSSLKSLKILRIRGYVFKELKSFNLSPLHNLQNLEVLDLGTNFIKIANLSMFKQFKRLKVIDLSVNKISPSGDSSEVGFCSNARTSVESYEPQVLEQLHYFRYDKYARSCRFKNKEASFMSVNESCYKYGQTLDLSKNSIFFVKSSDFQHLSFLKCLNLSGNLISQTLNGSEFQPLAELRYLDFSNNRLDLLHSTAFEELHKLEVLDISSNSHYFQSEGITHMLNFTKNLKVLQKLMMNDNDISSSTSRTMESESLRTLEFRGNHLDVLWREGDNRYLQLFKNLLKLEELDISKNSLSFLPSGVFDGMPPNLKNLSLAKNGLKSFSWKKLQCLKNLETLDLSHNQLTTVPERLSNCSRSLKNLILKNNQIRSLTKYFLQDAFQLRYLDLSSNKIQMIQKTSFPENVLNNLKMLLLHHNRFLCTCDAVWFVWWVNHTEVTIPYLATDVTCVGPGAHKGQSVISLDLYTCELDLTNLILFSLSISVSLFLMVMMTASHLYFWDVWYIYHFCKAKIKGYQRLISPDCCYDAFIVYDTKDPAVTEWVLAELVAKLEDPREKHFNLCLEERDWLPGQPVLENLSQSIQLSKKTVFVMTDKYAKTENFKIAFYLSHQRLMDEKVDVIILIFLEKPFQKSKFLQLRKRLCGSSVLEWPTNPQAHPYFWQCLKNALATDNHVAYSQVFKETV
Procedure, shortened: as §1

[1] = HEK-Blue cells overexpressing human TLR9, stimulated with ODN2006 5 nM, read-out: TLR 9 IC50
[2] = HEK-Blue human TLR9 reporter cells
[3] = HEK-Blue cells overexpressing human TLR9, stimulated with ODN2006 5 nM, 22 hour incubation, reporter readout

IC50 (human TLR8)	IC50 (human TLR9; [1])	IC50 (human TLR9; [2])	IC50 (human TLR7)	IC50 (human TLR9)	IC50 (human TLR9; [3])	SMILES
> 50000 nM	23 nM	23 nM	1300 nM	–	–	CS(=O)(=O)c1ccc(-c2nc3c(F)cc(C4CCN(C5CC6CCC(C5)N6C5CCC5)CC4)cc3n2C2CC2)cc1 (single isomer, unassigned) [Example 326, 6-(1-(8-cyclobutyl-8-azabicyclo[3.2.1]octan-3-yl)piperidin-4-yl)-1-cyclopropyl-4-fluoro-2-(4-(methylsulfonyl)phenyl)-1H-benzo[d]imidazole]
17100 nM	349 nM	–	2200 nM	–	350 nM	CN(C)C1CCN(Cc2ccc(-c3ccc4nc(-c5ccc(F)cc5)n(C)c4c3)cc2)CC1 [Example 378, 1-(4-(2-(4-fluorophenyl)-1-methyl-1H-benzo[d]imidazol-6-yl)benzyl)-N,N-dimethylpiperidin-4-amine]
> 50000 nM	1710 nM	–	> 50000 nM	1700 nM	–	Cn1c(-c2ccc(S(C)(=O)=O)cc2)nc2cc(C3CCN(C4CCN(C5CC5)CC4)CC3)c(F)cc21 [Example 241, 5-(1′-cyclopropyl-[1,4′-bipiperidin]-4-yl)-6-fluoro-1-methyl-2-(4-(methylsulfonyl)phenyl)-1H-benzo[d]imidazole]
23700 nM	204 nM	–	10500 nM	200 nM	–	COCCN1C2CCC1CC(N1CCC(c3cc(C)c4nc(-c5ccc(OC)c(OC)c5)n(C)c4c3)CC1)C2 (single isomer, unassigned) [Example 169, 2-(3,4-dimethoxyphenyl)-6-(1-(8-(2-methoxyethyl)-8-azabicyclo[3.2.1]octan-3-yl)piperidin-4-yl)-1,4-dimethyl-1H-benzo[d]imidazole]
> 50000 nM	212 nM	–	5700 nM	–	210 nM	COc1ccc(-c2nc3ccc(C4CCN(C5CCN(CC(C)C)CC5)CC4)cc3n2CC(F)F)cc1OC [Example 32, 1-(2,2-difluoroethyl)-2-(3,4-dimethoxyphenyl)-6-(1′-isobutyl-[1,4′-bipiperidin]-4-yl)-1H-benzo[d]imidazole]

The next lines start with the compound.

SMILES	IC50 (human TLR8)	IC50 (human TLR9; [1])	IC50 (human TLR9; [2])	IC50 (human TLR7)	IC50 (human TLR9)	IC50 (human TLR9; [3])
COc1cc(-c2nc3c(C)cc(C4CCN(C5CCN(CC(C)C)CC5)CC4)cc3n2C)cn2ncnc12 [Example 353, 6-(6-(1′-isobutyl-[1,4′-bipiperidin]-4-yl)-1,4-dimethyl-1H-benzo[d]imidazol-2-yl)-8-methoxy-[1,2,4]triazolo[1,5-a]pyridine]	8200 nM	16 nM	16 nM	100 nM	–	–
CS(=O)(=O)c1ccc(-c2nc3ccc(C4CCN(C5CCN(C6CCOCC6)CC5)CC4)c(F)c3[nH]2)cc1 [Example 182, 7-fluoro-2-(4-(methylsulfonyl)phenyl)-6-(1′-(tetrahydro-2H-pyran-4-yl)-[1,4′-bipiperidin]-4-yl)-1H-benzo[d]imidazole]	> 50000 nM	316 nM	–	> 50000 nM	320 nM	–
Cn1c(-c2ccc(S(C)(=O)=O)cc2)nc2cc(C3CCN(C4CC5CCC(C4)N5C4CCOCC4)CC3)c(F)cc21 (single isomer, unassigned) [Example 255, 6-fluoro-1-methyl-2-(4-(methylsulfonyl)phenyl)-5-(1-(8-(tetrahydro-2H-pyran-4-yl)-8-azabicyclo[3.2.1]octan-3-yl)piperidin-4-yl)-1H-benzo[d]imidazole]	> 50000 nM	72 nM	–	> 50000 nM	72 nM	–
CC(C)N1CCCC(N2CCC(c3cc(F)c4nc(-c5ccc(S(C)(=O)=O)cc5)n(C)c4c3)CC2)CC1 (single isomer, unassigned) [Example 295, 4-fluoro-6-(1-(1-isopropylazepan-4-yl)piperidin-4-yl)-1-methyl-2-(4-(methylsulfonyl)phenyl)-1H-benzo[d]imidazole]	> 50000 nM	24 nM	24 nM	700 nM	–	–
Cn1c(-c2ccc(S(C)(=O)=O)cc2)nc2cc(C3CCN(C4CCN(C5CCC5)CC4)CC3)c(F)cc21 [Example 243, 5-(1′-cyclobutyl-[1,4′-bipiperidin]-4-yl)-6-fluoro-1-methyl-2-(4-(methylsulfonyl)phenyl)-1H-benzo[d]imidazole]	> 50000 nM	943 nM	–	> 50000 nM	940 nM	–
CC(C)CN1C2CCC1CC(N1CCC(c3cc(F)c4nc(-c5ccc(S(C)(=O)=O)cc5)n(C)c4c3)CC1)C2 (centres unmarked) [Example 285, 4-fluoro-6-(1-(8-isobutyl-8-azabicyclo[3.2.1]octan-3-yl)piperidin-4-yl)-1-methyl-2-(4-(methylsulfonyl)phenyl)-1H-benzo[d]imidazole]	> 50000 nM	248 nM	250 nM	4800 nM	–	–
